Laboratory results reported in patent US11407742B2 (THE KITASATO INSTITUTE, priority 2017, dated 2022).
Converted amounts (≈) assume the structure as drawn.

Columns and labels:
[1] = test system: Mycobacterium avium JCM 15430 strain; experiment: Antibacterial activity against Mycobacterium avium complex, broth microdilution MIC (Test II-1); format: cell-based; conditions: JCM15430, 37° C. for 120 hours, MTT, minimum concentration inhibiting growth of 90% or more
Description: (§1) 6 mL of 7H9 liquid medium (Middlebrook 7H9 broth 0.5% (DIFCO), bovine serum albumin 5.0% (SIGMA), glucose 2.0% (Wako Pure Chemical Industries, Ltd.) and sodium chloride 0.85% (Kanto Chemical Co., Inc.)) containing 0.05% Tween80 (Wako Pure Chemical Industries, Ltd.) was put in a cell culturing flask T25 (Corning incorporated). To this flask was added 200 μL of a glycerol stored bacterial suspension of Mycobacterium avium (JCM15430, given by Institute of Physical and Chemical Research, Microbe Division) or 120 μL of a glycerol stored bacterial suspension of Mycobacterium intracellulare (JCM6384, given by Institute of Physical and Chemical Research, Microbe Division). The Mycobacterium avium was statically cultured at 37° C. for 96 hours, and the Mycobacterium intracellulare was statically cultured at 37° C. for 72 hours. The cultured bacterial suspension was diluted with the medium by 200 times for the Mycobacterium avium and by 600 times for the Mycobacterium intracellulare to prepare bacterial suspensions for inoculation (equivalent to 4×10^6 CFU/mL). The minimum inhibitory concentration (MIC) of each bacterial suspension was measured by carrying out a broth microdilution method in accordance with the following procedure. To a 96-well microplate, a two-stage dilution series (a final concentration of 0.001 to 50 μg/mL) of a test compound sample prepared beforehand was dispensed at 5 μL/well. Next, the bacterial suspension for inoculation was added at 95 μL/well. The culture solution in the well was mixed, and the resulting mixture cultured at 37° C. for 120 hours. After the culture, MTT reagent (SIGMA) was added at 5 μL/well, and the resulting mixture was cultured at 37° C. for 16 hours. Thereafter, a cytolytic buffer (dimethylformamide: 40.0% (nacalai tesque), acetic acid: 2.0% (Kanto Chemical Co., Inc.), sodium dodecyl sulfate: 20.0% (Wako Pure Chemical Industries, Ltd.), hydrochloric acid: 0.03 N (Kanto Chemical Co., Inc.)) at 95 μL/well, and the resulting mixture was shaken for 1 hour. For the culture solution in each well, the absorbance was measured at 570 nm, the growth inhibition rate was then calculated, and the minimum concentration indicative of inhibition of growth of 90% or more of bacteria was defined as a MIC value. Compounds 40551-F, -D, -G, -H, -I, -K and -L were used as test compounds, and ethambutol which is a known drug that is used for treatment of MAC infection was used as a comparative compound.

[2] = test system: Mycobacterium intracellulare JCM 6384 strain; experiment: as above; format: cell-based; conditions: JCM6384, 37° C. for 120 hours, MTT, minimum concentration inhibiting growth of 90% or more
Description: as §1

[3] = test system: Mycobacterium bovis BCG Pasteur strain; experiment: microbe, parasite or virus in culture; format: cell-based; conditions: Mycobacterium tuberculosis variant bovis BCG
[4] = test system: Mycobacterium smegmatis MC^2155 strain; experiment: Antibacterial activity against other nontuberculous mycobacteria, broth microdilution MIC (Test II-2); format: cell-based; conditions: Mycolicibacterium smegmatis, 37° C. for 30 hours, growth observed with the naked eye
Description: as §1
A test against Mycobacterium smegmatis as other nontuberculous mycobacteria was conducted in accordance with the following procedure. 6 mL of 7H9 liquid medium containing 0.5% Tween80 (Wako Pure Chemical Industries, Ltd.) was put in a cell culturing flask T25 (Corning incorporated). In this flask, a glycelol stored bacterial suspension of Mycobacterium smegmatis (MC^2155, acquired from American Type Culture Collection) was inoculated with one platinum loop, and statically cultured at 37° C. for 30 hours. The cultured bacterial suspension was then diluted by 200 times with the medium to prepare a bacterial suspension for inoculation (equivalent to 8×10^6 CFU/mL). The MIC of the bacterial suspension was measured by carrying out a broth microdilution method in the same procedure as in Test II-1. The bacterial suspension was cultured under conditions of 37° C. for 30 hours, and the MIC value was determined by observing growth of bacteria with the naked eye.

Solubility in solvent = format: physicochemical; conditions: organic solvents (methanol, DMSO)

| SMILES | MIC [1] | MIC [2] | MIC [3] | MIC [4] | Solubility in solvent (Solubility in solvent) |
| --- | --- | --- | --- | --- | --- |
| CCC(C)/C=C/C(=O)Nc1ccn(C2CCC(OC3OC(C)C(N(C)C)C(O)C3O)C(C)O2)c(=O)n1 (stereo not drawn) [Compound 40551-G] | 6.25 µg/mL (≈ 12.3 µM) | 3.12 µg/mL (≈ 6.13 µM) | 6.25 µg/mL (≈ 12.3 µM) | 12.5 µg/mL (≈ 24.6 µM) | soluble in methanol, DMSO, etc. |
| CC(C)/C=C/C(=O)Nc1ccn(C2CCC(OC3OC(C)C(N(C)C)C(O)C3O)C(C)O2)c(=O)n1 (stereo not drawn) [Compound 40551-L, (E)-N-(1-(5-((5-(dimethylamino)-3,4-dihydroxy-6-methyltetrahydro-2H-pyran-2-yl)oxy)-6-methyltetrahydro-2H-pyran-2-yl)-2-oxo-1,2-dihydropyrimidin-4-yl)-4-methylpenta-2-enamide] | 3.12 µg/mL (≈ 6.31 µM) | 0.78 µg/mL (≈ 1.58 µM) | 1.56 µg/mL (≈ 3.15 µM) | 3.12 µg/mL (≈ 6.31 µM) | soluble in methanol, DMSO, etc. |
| C/C=C(\C)C(=O)Nc1ccn(C2CCC(OC3OC(C)C(N(C)C)C(O)C3O)C(C)O2)c(=O)n1 (stereo not drawn) [Compound 40551-I, (E)-N-(1-(5-((5-(dimethylamino)-3,4-dihydroxy-6-methyltetrahydro-2H-pyran-2-yl)oxy)-6-methyltetrahydro-2H-pyran-2-yl)-2-oxo-1,2-dihydropyrimidin-4-yl)-2-methylbuta-2-enamide] |  | 25 µg/mL (≈ 52 µM) | 6.25 µg/mL (≈ 13 µM) |  | soluble in methanol, DMSO, etc. |
| CC(C)=CC(=O)Nc1ccn(C2CCC(OC3OC(C)C(N(C)C)C(O)C3O)C(C)O2)c(=O)n1 (stereo not drawn) [Compound 40551-F, N-(1-(5-((5-(dimethylamino)-3,4-dihydroxy-6-methyltetrahydro-2H-pyran-2-yl)oxy)-6-methyltetrahydro-2H-pyran-2-yl)-2-oxo-1,2-dihydropyrimidine-4-yl)-3-methylbuta-2-enamide] | 0.78 µg/mL (≈ 1.62 µM) | 0.39 µg/mL (≈ 0.812 µM) | 1.56 µg/mL (≈ 3.25 µM) | 3.12 µg/mL (≈ 6.49 µM) | soluble in methanol, DMSO, etc. |
| CC[C@@H](CO)NCCN[C@@H](CC)CO [Ethambutol, reference compound] | 12.5 µg/mL (≈ 61.2 µM) | 3.12 µg/mL (≈ 15.3 µM) | 1.56 µg/mL (≈ 7.64 µM) | 0.78 µg/mL (≈ 3.82 µM) |  |
| CC(C)C(=O)Nc1ccc(C(=O)Nc2ccn(C3CCC(OC4OC(C)C(N(C)C)C(O)C4O)C(C)O3)c(=O)n2)cc1 (stereo not drawn) [Compound 40551-D] | 12.5 µg/mL (≈ 21.3 µM) | 12.5 µg/mL (≈ 21.3 µM) | 6.25 µg/mL (≈ 10.6 µM) |  | soluble in methanol, DMSO, etc. |
| CC(C)CC(=O)Nc1ccn(C2CCC(OC3OC(C)C(N(C)C)C(O)C3O)C(C)O2)c(=O)n1 (stereo not drawn) [Compound 40551-K] | 25 µg/mL (≈ 51.8 µM) | 6.25 µg/mL (≈ 13 µM) | 6.25 µg/mL (≈ 13 µM) | 25 µg/mL (≈ 51.8 µM) | soluble in methanol, DMSO, etc. |
| CC1OC(n2ccc(NC(=O)c3ccc(N4C(=O)C(C)(CO)NC4(C)C)cc3)nc2=O)CCC1OC1OC(C)C(N(C)C)C(O)C1O (stereo not drawn) [Compound 40551-H] | 12.5 µg/mL (≈ 19 µM) | 1.56 µg/mL (≈ 2.37 µM) | 0.39 µg/mL (≈ 0.592 µM) | 1.56 µg/mL (≈ 2.37 µM) | soluble in methanol, DMSO, etc. |
